Source: patent US20220313690A1, “SYNERGISTIC EFFECT OF EYP001 AND IFN FOR THE TREATMENT OF HBV INFECTION” (ENYO PHARMA, priority 2019, published 2022)

Key:
HBV pgRNA = HBV pgRNA change from baseline after 4-week treatment course in chronically infected HBV patients; type: in vivo, human; conditions: 4 weeks
Method: FIG. 1: HBV pgRNA (log 10 copies/mL) changes from baseline after a 4 week anti-HBV treatment course of FXR agonist EYP001a or placebo in combination with interferon in chronically infected previously untreated HBV patients. PBO: placebo. peg-IFN: pegylated interferon alpha2a. 150 BID: 150 mg twice daily. 300 QD: 300 mg once daily. pgRNA: pregenomic ribonucleic acid.
(§1) HBV chronically infected patients (male (n=39) and female (n=34)) underwent a 4-week treatment course as either daily oral FXR agonist EYP001a monotherapy or placebo or entecavir (ETV) in Part A of the study (n=48) or in combination with interferon (n=23, weekly sub-cutaneous injections of pegylated IFNα2a, PEG-IFN) in Part B. Patient characteristics were: mean age of 39.7 years (range: 19-63); 6 of 73 were HBeAg-positive; 70% treatment naïve; mean baselines HBV DNA 4.2 (±1.5 SD) log 10 IU/mL, HBsAg 3.5 (±0.8 SD) log 10 IU/mL, and genotypes A (25), B (8), C (10), D (7) and E (4).

HBcrAg = HBcrAg change from baseline after 4-week treatment course in chronically infected HBV patients; type: in vivo, human; conditions: 4 weeks
Excerpt: PBO: placebo. peg-IFN: pegylated interferon alpha2a. HBcrAg: hepatitis B core-related antigen.
as §1

HBsAg = type: in vivo, human; conditions: 400 mg QD EYP001, end of treatment day 29, p<0.05
Excerpt: as §1

[1] = human, in vivo, 4 weeks
Method: Therefore, in a particular aspect, EYP001 is administered once a day.

HBV = conditions: chronic hepatitis B patients; Erken et al 2018; cited from earlier work
FXR = biological target: T1, FXR (Homo sapiens, UniProt Q96RI1); assay: FXR engagement markers (C4, FGF19) in HBV patients; type: in vivo; conditions: all EYP001 doses; data not shown
T1 construct: FXR engagement with all EYP001 doses led to decreases in C4 and increases in FGF19; from tissue; host or cells: endogenous FXR in the tissues of treated HBV patients (in vivo clinical study)
T1 sequence (Q96RI1 1-486): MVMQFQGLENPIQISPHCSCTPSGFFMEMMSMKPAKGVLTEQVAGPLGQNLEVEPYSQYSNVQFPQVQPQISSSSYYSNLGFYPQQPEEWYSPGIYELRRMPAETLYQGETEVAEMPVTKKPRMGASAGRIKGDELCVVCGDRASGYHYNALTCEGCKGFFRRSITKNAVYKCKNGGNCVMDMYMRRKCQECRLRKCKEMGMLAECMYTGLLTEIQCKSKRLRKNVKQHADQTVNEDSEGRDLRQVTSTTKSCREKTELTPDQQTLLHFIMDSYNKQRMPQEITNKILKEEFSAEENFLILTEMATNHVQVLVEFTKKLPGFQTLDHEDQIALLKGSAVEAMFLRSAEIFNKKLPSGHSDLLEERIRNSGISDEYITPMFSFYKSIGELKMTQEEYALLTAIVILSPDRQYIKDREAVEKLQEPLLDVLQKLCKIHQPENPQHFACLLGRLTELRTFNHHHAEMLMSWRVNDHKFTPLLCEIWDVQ
Excerpt: as §1

HBV replication = assay: Synergistic effect of combined treatment on HBV replication markers (pgRNA and HBcrAg) in patients; type: in vivo, human; conditions: same dose, same period of 4 weeks, monotherapy
Excerpt: By “a synergistic effect” is intended to refer to an effect for decreasing the HBV replication which is more than the sum of the effects of each molecule alone. HBV replication can be assessed by determining surface HBV antigen (HBsAg), HBeAg, HBV core related antigen (HBcrAg), HBV DNA, HBV pre-genomic RNA, HBV pre-core RNA and/or HBV cccDNA. More particularly, the effect is observed on the pre-genomic RNA (HBV pgRNA) and/or on the hepatitis B core related antigen (HBcrAg).
as §1, with “(4). FXR engagement with all EYP001 doses led to decreases in C4 and increases in FGF19 (data not shown).” for “(4).”
At end of treatment on day 29, 400 mg QD EYP001 decrease the mean HBsAg by −0.1 log 10 IU/mL (p<0.05). […]

[2] = ETV open-label 0.5 mg/day, end of treatment day 29
[3] = EYP001a 1 × 100 mg/day monotherapy, day 29
[4] = EYP001a 1 × 200 mg/day monotherapy, day 29
[5] = EYP001a 1 × 400 mg/day monotherapy, day 29
[6] = EYP001a 2 × 200 mg/day monotherapy, day 29

| Compound | HBVpgRNA mean change (HBV pgRNA; [2]) | HBcrAg mean change (HBcrAg; [2]) | mean HBsAg decrease (HBsAg) | pruritus, once a day versus twice a day [1] | HBV viral load (HBV) | change in C4 (FXR) | change in FGF19 (FXR) | effect when used alone (HBV replication) | HBVpgRNA mean change (HBV pgRNA; [3]) | HBVpgRNA mean change (HBV pgRNA; [4]) | HBVpgRNA mean change (HBV pgRNA; [5]) | HBVpgRNA mean change (HBV pgRNA; [6]) | HBcrAg mean change (HBcrAg; [3]) | HBcrAg mean change (HBcrAg; [4]) | HBcrAg mean change (HBcrAg; [5]) | HBcrAg mean change (HBcrAg; [6]) |
| --- | --- | --- | --- | --- | --- | --- | --- | --- | --- | --- | --- | --- | --- | --- | --- | --- |
| C=C1[C@H](CO)[C@@H](O)C[C@@H]1n1cnc2c(=O)[nH]c(N)nc21 [ETV, entecavir, reference compound] | −0.3 Log10 Copies mL | 0.03 Log10 IU mL |  |  |  |  |  |  |  |  |  |  |  |  |  |  |
| O=C(O)c1cc2c(Cl)c(N3CCN(S(=O)(=O)c4c(Cl)cccc4Cl)CC3)ccc2o1 [EYP001] |  |  | −0.1 log 10 IU/mL | fewer pruritus occurs when EYP001 is administered once a day | reduces HBV viral load | decreases | increases | do not show a significant effect | 0.5 Log10 Copies mL | 0.4 Log10 Copies mL | 0.2 Log10 Copies mL | −0.1 Log10 Copies mL | −0.3 Log10 IU mL | 0.2 Log10 IU mL | 0.02 Log10 IU mL | 1.2 Log10 IU mL |
